pEC50: −log10 of the molar value. Like-named read-outs stand apart in the source and are kept apart here.

One assay concerns the target T1, KCNQ2/3 channels (Homo sapiens, UniProt O43525+O43526).
T1 construct: expressed in transfected cells; host or cells: CHO-K1 cells kept under selection antibiotics
The experiment in a line: Fluorescence assay using a voltage sensitive dye (fluorimetry). It counts as cell-based. The procedure: Pharmacological Experiments Method I. Fluorescence Assay Using a Voltage Sensitive Dye (Fluorimetry)
[…] CHO-K1 cells expressing KCNQ2/3 channels are cultivated adherently at 37° C., 5% CO2 and 95% humidity in cell culture bottles (e.g. 80 cm^2 TC flasks, Nunc) with DMEM-high glucose (Sigma Aldrich, D7777) including 10% FCS (PAN Biotech, e.g. 3302-P270521) or alternatively MEM Alpha Medium (1×, liquid, Invitrogen, #22571), 10% fetal calf serum (FCS) (Invitrogen, #10270-106, heat-inactivated) and the necessary selection antibiotics.
Before being sown out for the measurements, the cells are washed with 1×DPBS buffer Ca^2+/Mg^2+-free (e.g. Invitrogen, #14190-094) and detached from the bottom of the culture vessel by using Accutase (PAA Laboratories, #L11-007) (incubation with Accutase for 15 min at 37° C.). The cell number is determined using a CASY™ cell counter (TCC, Schärfe System). Depending on the optimal density for each individual cell line, 20,000-30,000 cells/well/100 μl are seeded onto 96-well Corning™ CellBIND™ assay plates (Flat Clear Bottom Black Polystyrene Microplates, #3340). Freshly seeded cells are then left to settle for one hour at room temperature, followed by incubation for 24 hours at 37° C., 5% CO2 and 95% humidity.
The voltage-sensitive fluorescent dye from the Membrane Potential Assay Kit (Red™ Bulk format part R8123 for FLIPR, MDS Analytical Technologies™) is prepared by dissolving the contents of one vessel Membrane Potential Assay Kit Red Component A in 200 ml of extracellular buffer (ES buffer, 120 mM NaCl, 1 mM KCl, 10 mM HEPES, 2 mM CaCl2, 2 mM MgCl2, 10 mM glucose; pH 7.4). After removal of the nutrient medium, the cells are washed once with 200 μl of ES buffer, then loaded for 45 min at room temperature in 100 μl of dye solution in the dark.
Fluorescence measurements are carried out in a BMG Labtech FLUOstar™, BMG Labtech NOVOstar™ or BMG Labtech POLARstar™ instrument (525 nm excitation, 560 nm emission, Bottom Read mode). After incubation with the dye, 50 μl of the test substances in the desired concentrations, or 50 μl of ES buffer for control purposes, are applied to the wells of the assay plate and incubated for 30 min at room temperature while being shielded from light. The fluorescence intensity of the dye is then measured for 5 min and the fluorescence value F1 of each well is thus determined at a given, constant time. 15 μl of a KCl solution are then added to each well (final concentration of potassium ions 92 mM). The change in fluorescence intensity is subsequently monitored until all the relevant values have been obtained (mainly 5-30 min). At a given time post KCl application, a fluorescence value F2 is determined, in this case at the time of the fluorescence peak.
For calculation, the fluorescence intensity F2 is corrected for the fluorescence intensity F1, and the activity (ΔF/F) of the target compound on the potassium channel is determined as follows:
In order to determine whether a substance has agonistic activity,
A substance has an agonistic activity on the potassium channel if
[formula] increases dose dependently.
Calculations of EC50 and IC50 values are carried out with the aid of ‘Prism v4.0’ software (GraphPad Software™).

The subject of another assay is rat. The experiment in a line: Low-intensity tail flick test (rat). In kind it is in vivo. To be noted: for ED50: po, peroral, at time of maximum efficacy. The procedure: Method II. Low-Intensity Tail Flick Test (Rat)
In the low-intensity tail flick test, the determination of the antinociceptive effect of the compounds according to the invention towards an acute noxious thermal stimulus is carried out by measuring the withdrawal reflex of the rat tail (tail flick) in response to a radiant heat beam (analgesia meter; model 2011 of the company Rhema Labortechnik, Hofheim, Germany) according to the method described by D'Amour and Smith (J. Pharm. Exp. Ther. 72, 74 79 (1941). To this end, the rats were placed in a plexiglas restrainer, and a low-intensity radiant heat beam (48° C.) was focused onto the dorsal surface of the tail root. The stimulus intensity was adjusted to result in a mean pre-drug control withdrawal latency of about 7 s, thus also allowing a supraspinal modulation of the spinally mediated acute nociceptive reflex. A cutoff time of 30 s was applied to avoid tissue damage. Male Sprague-Dawley rats (Janvier, Le Genest St. Isle, Frankreich) with weights of 200-250 g were used. 10 rats were used per group. Before administration of a compound according to the invention, the animals were pre-tested twice in the course of five minutes and the mean of these measurements was calculated as the pre-test mean. The antinociceptive effect was determined at 20, 40 and 60 min after peroral compound administration. The antinociceptive effect was calculated based on the increase in the tail withdrawal latency according to the following formula and is expressed as percentage of the maximum possible effect (MPE [%]): MPE=[(T1−T0)/(T2−T0)]*100
In this, T0 is the control latency time before and T1 the latency time after administration of the compound, T2 is the cutoff time and MPE is the maximum possible effect. Employing variant analysis (repeated measures ANOVA) allowed testing of statistically significant differences between the compounds according to the invention and the vehicle group. The significance level was set to p≦0.05. To determine the dose dependency, the particular compound according to the invention was administered in 3-5 logarithmically increasing doses, including a threshold dose and a maximum effective dose, and the ED50 values were determined with the aid of regression analysis. The ED50 calculation was performed at the time of maximum efficacy (usually 20 min after administration of the compounds).
For orientation: Thermal pain tests record how soon the animal reacts.

The mark [1] stands for this setting: CHO-K1 cells expressing KCNQ2/3 channels.
The mark [2] stands for this setting: CHO-K1 cells expressing KCNQ2/3 channels, relative to retigabine (RTG) = 100%, read-out: Fluorimetry % efficacy (RTG = 100%).

As to `Cc1c(C(=O)NCc2cccc(F)c2)c(=O)n(C)c2cc(C(F)(F)F)ccc12` [Example 1, N-[(3-fluorophenyl)-methyl]-1,4-dimethyl-2-oxo-7-(trifluoromethyl)-1H-quinoline-3-carboxylic acid amide], the negative logarithm of the EC50 (pEC50) – broadly, −log10 of the EC50, conventionally taken in molar units – at KCNQ2/3 channels (setting [1]) is 6.61. The Emax at KCNQ2/3 channels (setting [2]) turned out to be 177%. For the same compound, the 50% effect level with rat (ED50) was put at a dose of 2.3 mg/kg.

Compound `Cc1c(C(=O)NCc2cccc(F)c2)c(=S)n(C)c2cc(C(F)(F)F)ccc12` [Example 3, N-[(3-fluorophenyl)-methyl]-1,4-dimethyl-2-thioxo-7-(trifluoromethyl)-1H-quinoline-3-carboxylic acid amide] had a pEC50 at KCNQ2/3 channels (setting [1]) of 6.91. Also, the Emax on KCNQ2/3 channels (setting [2]) was 101%. The “Low intensity tail flick, rat, peroral, MPE (dose)” value in the assay on rat (dose 10.00 mg/kg) was 24 (10.00) %.

Consider `COCCn1c(=O)c(C(=O)NCc2cccc(F)c2)c(C)c2ccc(C(F)(F)F)cc21` [Example 4, N-[(3-fluorophenyl)-methyl]-1-(2-methoxy-ethyl)-4-methyl-2-oxo-7-(trifluoromethyl)-1H-quinoline-3-carboxylic acid amide], for which the negative-log EC50 (pEC50) on KCNQ2/3 channels (setting [1]) was 6.07. Further, the Emax on KCNQ2/3 channels (setting [2]) worked out at 195%. The ED50 (commonly the dose at which the effect has come halfway, by size or by number of responders) in the assay with rat was 2.8 mg/kg.

In turn, `Cc1c(C(=O)NCc2ccc(F)cc2)c(=O)n(C)c2cc(C(F)(F)F)ccc12` [Example 6, N-[(4-fluorophenyl)-methyl]-1,4-dimethyl-2-oxo-7-(trifluoromethyl)-1H-quinoline-3-carboxylic acid amide] had a pEC50 at KCNQ2/3 channels (setting [1]) of 6.72. For the same compound, the Emax at KCNQ2/3 channels (setting [2]) amounted to 169%. For the same compound, the 50% effect level with rat (ED50) was put at a dose of 0.6 mg/kg.

With `COCC(COC)n1c(=O)c(C(=O)NCc2cccc(F)c2)c(C)c2ccc(C(F)(F)F)cc21` [Example 31, N-[(3-Fluorophenyl)-methyl]-1-[2-methoxy-1-(methoxymethyl)-ethyl]-4-methyl-2-oxo-7-(trifluoromethyl)-1H-quinoline-3-carboxylic acid amide], the Emax on KCNQ2/3 channels (CHO-K1, read-out: Fluorimetry % efficacy (RTG = 100%)) worked out at 46%. The compound also had a negative-log EC50 (pEC50) at KCNQ2/3 channels (setting [1]) of 7.10.

Compound `Cc1c(C(=O)NCCCC(C)(C)C)c(=O)n(C)c2cc(C(F)(F)F)ccc12` [Example 25, N-(4,4-dimethyl-pentyl)-1,4-dimethyl-2-oxo-7-(trifluoromethyl)-1H-quinoline-3-carboxylic acid amide] gave a negative-log EC50 (pEC50) at KCNQ2/3 channels (setting [1]) of 7.17. In addition, on KCNQ2/3 channels (setting [2]), the Emax came out at 258%.

Consider `CCCCCn1c(=O)c(C(=O)NCc2cccc(F)c2)c(C)c2ccc(C(F)(F)F)cc21` [Example 41, N-[(3-fluorophenyl)-methyl]-4-methyl-2-oxo-1-pentyl-7-(trifluoromethyl)-1H-quinoline-3-carboxylic acid amide], for which, at KCNQ2/3 channels (setting [2]), the Emax was 18%.

As for `COc1c(C(=O)NCc2cccc(F)c2)c(=O)n(C)c2cc(C(F)(F)F)ccc12` [Example 45, N-[(3-fluorophenyl)-methyl]-4-methoxy-1-methyl-2-oxo-7-(trifluoromethyl)-1H-quinoline-3-carboxylic acid amide], the negative logarithm of the EC50 (pEC50) on KCNQ2/3 channels (setting [1]) was 6.67. Further, the Emax at KCNQ2/3 channels (setting [2]) came to 190%.

For the compound `CCOCCn1c(=O)c(C(=O)NCc2cccc(F)c2)c(C)c2ccc(C(F)(F)F)cc21` [Example 39, 1-(2-ethoxy-ethyl)-N-[(3-fluorophenyl)-methyl]-4-methyl-2-oxo-7-(trifluoromethyl)-1H-quinoline-3-carboxylic acid amide], at KCNQ2/3 channels (setting [2]), the Emax came out at 43%.

On KCNQ2/3 channels (setting [1]), `Cc1c(C(=O)NCc2cccc(F)c2)c(=O)n(C)c2cc(Cl)ccc12` [Example 37, 7-chloro-N-[(3-fluorophenyl)-methyl]-1,4-dimethyl-2-oxo-1H-quinoline-3-carboxylic acid amide] showed a negative-log EC50 (pEC50) of 6.14. Also, the Emax at KCNQ2/3 channels (setting [2]) worked out at 139%.

On to `Cc1c(C(=O)NCc2cccc(F)c2)c(=O)n(C2CCOCC2)c2cc(C(F)(F)F)ccc12` [Example 44, N-[(3-fluorophenyl)-methyl]-4-methyl-2-oxo-1-tetrahydro-pyran-4-yl-7-(trifluoromethyl)-1H-quinoline-3-carboxylic acid amide], for which the Emax on KCNQ2/3 channels (setting [2]) was 36%.

At KCNQ2/3 channels (setting [1]), `COC(C)Cn1c(=O)c(C(=O)NCc2cccc(F)c2)c(C)c2ccc(C(F)(F)F)cc21` (stereo not shown) [Example 43, N-[(3-fluorophenyl)-methyl]-1-(2-methoxy-propyl)-4-methyl-2-oxo-7-(trifluoromethyl)-1H-quinoline-3-carboxylic acid amide] showed a pEC50 of 5.77. The Emax at KCNQ2/3 channels (setting [2]) amounted to 100%.

Turning to `Cc1c(C(=O)NCc2cccc(F)c2)c(=O)n(C)c2cc(OC(F)(F)F)ccc12` [Example 33, N-[(3-fluorophenyl)-methyl]-1,4-dimethyl-2-oxo-7-(trifluoromethyloxy)-1H-quinoline-3-carboxylic acid amide], the pEC50 on KCNQ2/3 channels (setting [1]) is 6.41. For the same compound, the Emax on KCNQ2/3 channels (setting [2]) is 138%.

At KCNQ2/3 channels (setting [1]), `Cc1c(C(=O)NCc2ccc(F)cc2)c(=S)n(C)c2cc(C(F)(F)F)ccc12` [Example 36, N-[(4-fluorophenyl)-methyl]-1,4-dimethyl-2-thioxo-7-(trifluoromethyl)-1H-quinoline-3-carboxylic acid amide] had a pEC50 of 6.90. In addition, the Emax on KCNQ2/3 channels (setting [2]) amounted to 99%.

`COCCn1c(=O)c(C(=O)NCc2ccc(F)cc2)c(C)c2ccc(C(F)(F)F)cc21` [Example 7, N-[(4-fluorophenyl)-methyl]-1-(2-methoxy-ethyl)-4-methyl-2-oxo-7-(trifluoromethyl)-1H-quinoline-3-carboxylic acid amide] showed a pEC50 at KCNQ2/3 channels (setting [1]) of 6.22. In addition, the Emax at KCNQ2/3 channels (setting [2]) was 146%. In addition, the “Low intensity tail flick, rat, peroral, MPE (dose)” value in the assay with rat (dose 3.16 mg/kg) is listed as 47 (3.16) %.

For the compound `CCC(Cn1c(=O)c(C(=O)NCc2cccc(F)c2)c(C)c2ccc(C(F)(F)F)cc21)OC` (stereo not shown) [Example 32, N-[(3-fluorophenyl)-methyl]-1-(2-methoxy-butyl)-4-methyl-2-oxo-7-(trifluoromethyl)-1H-quinoline-3-carboxylic acid amide], the Emax on KCNQ2/3 channels (setting [2]) was 26%.

At KCNQ2/3 channels (setting [1]), `CCCn1c(=O)c(C(=O)NCc2cccc(F)c2)c(C)c2ccc(C(F)(F)F)cc21` [Example 11, N-[(3-fluorophenyl)-methyl]-4-methyl-2-oxo-1-propyl-7-(trifluoromethyl)-1H-quinoline-3-carboxylic acid amide] had a negative-log EC50 (pEC50) of 6.39. For the same compound, at KCNQ2/3 channels (setting [2]), the Emax was 167%.

On to “2-[3-[(3-fluorophenyl)-methyl-carbamoyl]-4-methyl-2-oxo-7-(trifluoromethyl)-1H-quinolin-1-yl]-acetic acid methyl ester [Example 26]”, for which, on KCNQ2/3 channels (setting [1]), the pEC50 is 6.00. Also, the “Fluorimetry % efficacy (RTG = 100%)” value on KCNQ2/3 channels (CHO-K1 cells expressing KCNQ2/3 channels, relative to retigabine (RTG) = 100%) is recorded as 108%.

Source of the values: patent US8653102B2, “Substituted 2-oxo- and 2-thioxo-dihydroquinoline-3-carboxamides as KCNQ2/3 modulators” (Gruenenthal GmbH, priority 2010, dated 2014).
